The pEC50 is the negative decadic logarithm of the EC50, by convention in mol/L.

pEC50: −log10 of the molar value. Like-named read-outs stand apart in the source and are kept apart here. Starred links: 1 amine or outer side, 2 acyl side, 3 side chain; linkers in the order of their positions; H or OH if unused. Non-standard residues stand in square brackets, D forms with d. Residues, ends and D or L forms follow the SMILES beside them. Groups on a side chain read outwards from the residue. *: point of attachment. C20 diacid = O=C(O)CCCCCCCCCCCCCCCCCCC(=O)*; C18 diacid = O=C(O)CCCCCCCCCCCCCCCCC(=O)*; Dip = N[C@H](C(=O)O)C(c1ccccc1)c1ccccc1; γGlu = O=C(O)[C@H](CCC(=O)[*:2])N[*:1]; Stearoyl = CCCCCCCCCCCCCCCCCC(=O)*; Palmitoyl = CCCCCCCCCCCCCCCC(=O)*; αMeF = C[C@](N)(Cc1ccccc1)C(=O)O; PEG4 = NCCOCCOCCOCCOCCC(=O)O; PEG2 = NCCOCCOCCC(=O)O; AEEA = NCCOCCOCC(=O)O; Aib = CC(C)(N)C(=O)O

From patent US20250353891A1 (MEDIMMUNE LIMITED, priority 2022, published 2025) come the findings set out here.

For experiment [1], the target named is human GLP-1 receptor (hGLP-1R) (Homo sapiens, UniProt P43220). The experiment in a line: cAMP production (HTRF) in CHO cells expressing hGLP-1R. Further details: expressed in transfected cells. In kind it is cell-based. The conditions noted are these: for pEC50: cAMP in CHO hGLP-1R cells, geometric mean, read-out: hGLP-1R EC50; for % Relative Potency Ratio: % GLP-1R activity relative to GLP-1 / % GlucR activity relative to glucagon. In short, it runs like this:
(§1)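 Read-out: HTRF cAMP (anti-cAMP cryptate donor, cAMP-d2 acceptor in conjugate/lysis buffer), converted to % Delta F and fitted by 4-parameter logistic for EC50. Cell densities were 1×10^5 cells/mL (hGLP-1R) or 2×10^5 cells/mL (hGCGR). Stimulation lasted 30 min at room temperature.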

Experiment [2] concerns the target human glucagon receptor (hGCGR) (Homo sapiens, UniProt P47871). Briefly: cAMP production (HTRF) in CHO cells expressing hGCGR. It is filed as cell-based. Further details: expressed in transfected cells. The note with it: cAMP in CHO hGCGR cells, geometric mean, read-out: hGluc-R EC50. The procedure, abridged:
as §1
A general note: cAMP levels reflect the balance of adenylyl cyclase and phosphodiesterase activity.

[3] abbreviates: Table 6, peptides modified at position 17.
The mark [4] stands for this setting: Table 7, peptides modified at position 20.

human glucagon receptor (hGCGR), sequence (P47871 26-477): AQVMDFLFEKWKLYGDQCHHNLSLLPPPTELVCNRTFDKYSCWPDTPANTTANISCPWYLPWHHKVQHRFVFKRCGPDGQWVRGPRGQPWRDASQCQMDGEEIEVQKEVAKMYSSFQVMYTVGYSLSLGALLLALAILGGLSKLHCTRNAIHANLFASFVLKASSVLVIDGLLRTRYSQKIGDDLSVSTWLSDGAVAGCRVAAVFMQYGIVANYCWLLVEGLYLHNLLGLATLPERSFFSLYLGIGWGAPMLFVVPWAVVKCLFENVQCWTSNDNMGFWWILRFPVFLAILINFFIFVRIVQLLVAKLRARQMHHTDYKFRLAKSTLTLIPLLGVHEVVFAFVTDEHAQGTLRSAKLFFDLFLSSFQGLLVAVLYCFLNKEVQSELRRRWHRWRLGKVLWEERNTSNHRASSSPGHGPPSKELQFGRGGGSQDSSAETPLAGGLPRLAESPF
human GLP-1 receptor (hGLP-1R), sequence (P43220 24-463): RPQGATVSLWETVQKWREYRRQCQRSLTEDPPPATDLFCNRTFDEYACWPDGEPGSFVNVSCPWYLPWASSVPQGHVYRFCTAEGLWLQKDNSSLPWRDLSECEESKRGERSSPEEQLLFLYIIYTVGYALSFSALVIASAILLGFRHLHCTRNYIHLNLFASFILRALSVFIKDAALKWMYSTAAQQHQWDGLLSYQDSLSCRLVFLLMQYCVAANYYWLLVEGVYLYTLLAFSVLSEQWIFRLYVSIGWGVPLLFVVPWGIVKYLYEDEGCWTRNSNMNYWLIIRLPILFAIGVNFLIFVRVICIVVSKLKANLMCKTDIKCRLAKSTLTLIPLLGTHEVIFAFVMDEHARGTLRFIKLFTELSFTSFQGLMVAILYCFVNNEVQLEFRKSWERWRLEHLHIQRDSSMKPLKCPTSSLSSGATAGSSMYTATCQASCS

Turning to `CC(C)C[C@H](NC(=O)[C@H](Cc1c[nH]c2ccccc12)NC(=O)[C@H](CCC(N)=O)NC(=O)[C@@H](NC(=O)[C@H](Cc1ccccc1)NC(=O)[C@H](CC(=O)O)NC(=O)[C@H](CCCNC(=N)N)NC(=O)[C@H](C)NC(=O)[C@H](CCCNC(=N)N)NC(=O)[C@H](CCCCNC(=O)COCCOCCNC(=O)COCCOCCNC(=O)CC[C@H](NC(=O)CCCCCCCCCCCCCCCCC(=O)O)C(=O)O)NC(=O)[C@H](CO)NC(=O)[C@H](CC(=O)O)NC(=O)[C@H](CC(C)C)NC(=O)[C@](C)(Cc1ccccc1)NC(=O)[C@H](CCCCN)NC(=O)[C@H](CO)NC(=O)[C@@H](NC(=O)[C@H](CC(=O)O)NC(=O)[C@H](CO)NC(=O)[C@@H](NC(=O)[C@H](Cc1ccccc1)NC(=O)[C@@H](NC(=O)CNC(=O)[C@H](CCC(N)=O)NC(=O)C(C)(C)NC(=O)[C@@H](N)Cc1c[nH]cn1)[C@@H](C)O)[C@@H](C)O)C(C)C)C(C)C)C(=O)N[C@@H](CC(C)C)C(=O)NC(C)(C)C(=O)N[C@H](C(=O)O)[C@@H](C)O` [Peptide 36] (H-H[Aib]QGTFTSDVSK[αMeF]LDSK([AEEA-AEEA-γGlu-C18 diacid])RARDFVQWLL[Aib]T-OH; N-terminus assumed), the pEC50 in experiment [1] (setting [3]) was 10.37; in experiment [2] (setting [3]), 9.56. Moreover, the “% Relative Potency Ratio” value in experiment [1] (Table 6) stood at 12.8.
On the same counts, the results for `CCCCCCCCCCCCCCCC(=O)N[C@@H](CCC(=O)N[C@@H](CCC(=O)NCCOCCOCCC(=O)NCCOCCOCCC(=O)NCCCC[C@H](NC(=O)[C@H](CO)NC(=O)[C@H](CC(=O)O)NC(=O)[C@H](CC(C)C)NC(=O)[C@@H](NC(=O)[C@H](CCCCN)NC(=O)[C@H](CO)NC(=O)[C@@H](NC(=O)[C@H](CC(=O)O)NC(=O)[C@H](CO)NC(=O)[C@@H](NC(=O)[C@](C)(Cc1ccccc1)NC(=O)[C@H](CO)NC(=O)CNC(=O)[C@H](CCC(N)=O)NC(=O)[C@H](CO)NC(=O)[C@@H](N)Cc1c[nH]cn1)[C@@H](C)O)C(C)C)C(c1ccccc1)c1ccccc1)C(=O)N[C@@H](C)C(=O)N[C@@H](C)C(=O)N[C@@H](CCC(N)=O)C(=O)N[C@@H](CC(=O)O)C(=O)N[C@@](C)(Cc1ccccc1)C(=O)N[C@H](C(=O)N[C@@H](CCC(=O)O)C(=O)NC(C)(C)C(=O)N[C@H](C(=O)N[C@H](C(=O)N[C@@H](CC(N)=O)C(=O)N[C@H](C(N)=O)[C@@H](C)O)[C@@H](C)CC)[C@@H](C)CC)C(C)C)C(=O)O)C(=O)O` [Peptide 64] (H-HSQGS[αMeF]TSDVSK[Dip]LDSK([PEG2-PEG2-γGlu-γGlu-Palmitoyl])AAQD[αMeF]VE[Aib]IINT-NH2; N-terminus assumed) are 11.59, 11.51 and 2.4.
The like results for `CCCCCCCCCCCCCCCCCC(=O)N[C@@H](CCC(=O)N[C@@H](CCC(=O)NCCOCCOCCC(=O)NCCOCCOCCC(=O)NCCCC[C@H](NC(=O)[C@H](CO)NC(=O)[C@H](CC(=O)O)NC(=O)[C@H](CC(C)C)NC(=O)[C@@H](NC(=O)[C@H](CCCCN)NC(=O)[C@H](CO)NC(=O)[C@@H](NC(=O)[C@H](CC(=O)O)NC(=O)[C@H](CO)NC(=O)[C@@H](NC(=O)[C@](C)(Cc1ccccc1)NC(=O)[C@H](CO)NC(=O)CNC(=O)[C@H](CCC(N)=O)NC(=O)C(C)(C)NC(=O)[C@@H](N)Cc1c[nH]cn1)[C@@H](C)O)C(C)C)[C@@H](C)CC)C(=O)N[C@@H](C)C(=O)N[C@@H](C)C(=O)N[C@@H](CCC(N)=O)C(=O)N[C@@H](CC(=O)O)C(=O)N[C@@](C)(Cc1ccccc1)C(=O)N[C@H](C(=O)N[C@@H](CCC(N)=O)C(=O)NC(C)(C)C(=O)N[C@H](C(=O)N[C@H](C(=O)N[C@@H](CC(N)=O)C(=O)N[C@H](C(N)=O)[C@@H](C)O)[C@@H](C)CC)[C@@H](C)CC)C(C)C)C(=O)O)C(=O)O` [Peptide 124] (H-H[Aib]QGS[αMeF]TSDVSKILDSK([PEG2-PEG2-γGlu-γGlu-Stearoyl])AAQD[αMeF]VQ[Aib]IINT-NH2; N-terminus assumed) were, in that order, 11.89, 11.01 and 15.2.
In the case of `CC(C)C[C@H](NC(=O)[C@H](C)NC(=O)[C@H](CCCNC(=N)N)NC(=O)[C@H](CCCCNC(=O)COCCOCCNC(=O)COCCOCCNC(=O)CC[C@H](NC(=O)CCCCCCCCCCCCCCCCCCC(=O)O)C(=O)O)NC(=O)[C@H](CCCCN)NC(=O)[C@H](CC(=O)O)NC(=O)[C@H](CC(C)C)NC(=O)[C@](C)(Cc1ccccc1)NC(=O)[C@H](CCCCN)NC(=O)[C@H](CO)NC(=O)[C@@H](NC(=O)[C@H](CC(=O)O)NC(=O)[C@H](CO)NC(=O)[C@@H](NC(=O)[C@H](Cc1ccccc1)NC(=O)[C@@H](NC(=O)CNC(=O)[C@H](CCC(N)=O)NC(=O)C(C)(C)NC(=O)[C@@H](N)Cc1c[nH]cn1)[C@@H](C)O)[C@@H](C)O)C(C)C)C(=O)N[C@@H](CC(=O)O)C(=O)N[C@@H](Cc1ccccc1)C(=O)N[C@H](C(=O)N[C@@H](CCCNC(=N)N)C(=O)N[C@@H](Cc1c[nH]c2ccccc12)C(=O)N[C@@H](CC(C)C)C(=O)N[C@@H](CC(C)C)C(=O)NC(C)(C)C(=O)N[C@@H](CCC(=O)O)C(N)=O)C(C)C` [Peptide 452] (H-H[Aib]QGTFTSDVSK[αMeF]LDKK([AEEA-AEEA-γGlu-C20 diacid])RALDFVRWLL[Aib]E-NH2), the values for the pEC50 in experiment [1] (setting [3]) and in experiment [2] (setting [3]) were 9.31 and 9.82, respectively. Moreover, the “% Relative Potency Ratio” value in experiment [1] (Table 6) was 0.6.
As to `CC(C)C[C@H](NC(=O)[C@H](Cc1c[nH]c2ccccc12)NC(=O)[C@H](CCCNC(=N)N)NC(=O)[C@@H](NC(=O)[C@H](Cc1ccccc1)NC(=O)[C@H](CC(=O)O)NC(=O)[C@H](CCCNC(=N)N)NC(=O)[C@H](C)NC(=O)[C@H](CCCNC(=N)N)NC(=O)[C@H](CCCCNC(=O)COCCOCCNC(=O)COCCOCCNC(=O)CC[C@H](NC(=O)CC[C@H](NC(=O)CCCCCCCCCCCCCCCCC(=O)O)C(=O)O)C(=O)O)NC(=O)[C@H](CCCCN)NC(=O)[C@H](CC(=O)O)NC(=O)[C@H](CC(C)C)NC(=O)[C@](C)(Cc1ccccc1)NC(=O)[C@H](CCCCN)NC(=O)[C@H](CO)NC(=O)[C@@H](NC(=O)[C@H](CC(=O)O)NC(=O)[C@H](CO)NC(=O)[C@@H](NC(=O)[C@H](Cc1ccccc1)NC(=O)[C@@H](NC(=O)CNC(=O)[C@H](CCC(N)=O)NC(=O)C(C)(C)NC(=O)[C@@H](N)Cc1c[nH]cn1)[C@@H](C)O)[C@@H](C)O)C(C)C)C(C)C)C(=O)N[C@@H](CC(C)C)C(=O)NC(C)(C)C(=O)N[C@@H](CCC(=O)O)C(=O)O` [Peptide 448] (H-H[Aib]QGTFTSDVSK[αMeF]LDKK([AEEA-AEEA-γGlu-γGlu-C18 diacid])RARDFVRWLL[Aib]E-OH), the pEC50 was 10.27 in experiment [1] (setting [3]) and 10.54 in experiment [2] (setting [3]). In experiment [1] (Table 6), the “% Relative Potency Ratio” value is recorded as 1.1.
`CC[C@H](C)[C@H](NC(=O)C(C)(C)NC(=O)[C@H](CCC(N)=O)NC(=O)[C@@H](NC(=O)[C@](C)(Cc1ccccc1)NC(=O)[C@H](CC(=O)O)NC(=O)[C@H](CCCCNC(=O)CCOCCOCCOCCOCCNC(=O)CC[C@H](NC(=O)CC[C@H](NC(=O)CCCCCCCCCCCCCCCCC(=O)O)C(=O)O)C(=O)O)NC(=O)[C@H](C)NC(=O)[C@H](C)NC(=O)[C@H](CCCNC(=N)N)NC(=O)[C@H](CO)NC(=O)[C@H](CC(=O)O)NC(=O)[C@H](CC(C)C)NC(=O)[C@](C)(Cc1ccccc1)NC(=O)[C@H](CCCCN)NC(=O)[C@H](CO)NC(=O)[C@@H](NC(=O)[C@H](CC(=O)O)NC(=O)[C@H](CO)NC(=O)[C@@H](NC(=O)[C@](C)(Cc1ccccc1)NC(=O)[C@H](CO)NC(=O)CNC(=O)[C@H](Cc1c[nH]cn1)NC(=O)C(C)(C)NC(=O)[C@@H](N)Cc1c[nH]cn1)[C@@H](C)O)C(C)C)C(C)C)C(=O)N[C@@H](C)C(=O)N[C@@H](CC(N)=O)C(=O)N[C@H](C(N)=O)[C@@H](C)O` [Peptide 263] (H-H[Aib]HGS[αMeF]TSDVSK[αMeF]LDSRAAK([PEG4-γGlu-γGlu-C18 diacid])D[αMeF]VQ[Aib]IANT-NH2): the values for the pEC50 in experiment [1] (setting [4]) and in experiment [2] (setting [4]) were 10.60 and 10.19, respectively.
As for `CC[C@H](C)[C@H](NC(=O)C(C)(C)NC(=O)[C@H](CCC(N)=O)NC(=O)[C@@H](NC(=O)[C@](C)(Cc1ccccc1)NC(=O)[C@H](CC(=O)O)NC(=O)[C@H](CCCCNC(=O)COCCOCCNC(=O)COCCOCCNC(=O)CC[C@H](NC(=O)CCCCCCCCCCCCCCCCC(=O)O)C(=O)O)NC(=O)[C@H](C)NC(=O)[C@H](C)NC(=O)[C@H](CCCNC(=N)N)NC(=O)[C@H](CO)NC(=O)[C@H](CC(=O)O)NC(=O)[C@H](CC(C)C)NC(=O)[C@](C)(Cc1ccccc1)NC(=O)[C@H](CCCNC(=N)N)NC(=O)[C@H](CO)NC(=O)[C@@H](NC(=O)[C@H](CC(=O)O)NC(=O)[C@H](CO)NC(=O)[C@@H](NC(=O)[C@](C)(Cc1ccccc1)NC(=O)[C@H](CO)NC(=O)CNC(=O)[C@H](Cc1c[nH]cn1)NC(=O)C(C)(C)NC(=O)[C@@H](N)Cc1c[nH]cn1)[C@@H](C)O)C(C)C)C(C)C)C(=O)N[C@@H](C)C(=O)N[C@@H](CC(N)=O)C(=O)N[C@H](C(N)=O)[C@@H](C)O` [Peptide 297] (H-H[Aib]HGS[αMeF]TSDVSR[αMeF]LDSRAAK([AEEA-AEEA-γGlu-C18 diacid])D[αMeF]VQ[Aib]IANT-NH2), the pEC50 is 10.52 in experiment [1] (setting [4]) and 9.98 in experiment [2] (setting [4]). Moreover, the “% Relative Potency Ratio” value in experiment [1] (Table 7) was 6.8.
